From PubChem BioAssay AID330 (DTP/NCI, 2004)
Several values for one entry are separate records, joined by “and”; a condition that tells them apart may be missing. Equal values may be shown once. Toxic doses and inconclusive results are not listed. The calls were made as follows: active = survival T/C of 150% or more; inactive = T/C below 125% in these data.

System: P388 leukemia ip, CD2F1 mice, survival T/C
Assay: NCI In Vivo Anticancer Drug Screen. Data for tumor model P388 Leukemia (intraperitoneal) in CD2F1 (CDF1) mice
Conditions: endpoint: median survival time, higher = longer survival
Outline: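 Mice carrying the transplanted tumor received test compound or vehicle. Survival was recorded in each group, and the value is the treated-group measurement divided by that of the vehicle-treated control group.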

[1] = dose: 60.0 mg/kg/injection, schedule: Q01DX005 (ip), vehicle: Klucel (hydroxypropylcellulose) (HPC)
[2] = dose: 120.0 mg/kg/injection, schedule: Q01DX005 (ip), vehicle: Klucel (hydroxypropylcellulose) (HPC)
[3] = dose: 60.0 mg/kg/injection, schedule: Q01DX005 (ip), vehicle: saline
[4] = dose: 120.0 mg/kg/injection, schedule: Q01DX005 (ip), vehicle: saline
[5] = dose: 100.0 mg/kg/injection, schedule: Q04DX003 (ip), vehicle: Klucel (hydroxypropylcellulose) (HPC)
[6] = dose: 200.0 mg/kg/injection, schedule: Q04DX003 (ip), vehicle: Klucel (hydroxypropylcellulose) (HPC)
[7] = dose: 50.0 mg/kg/injection, schedule: Q01DX005 (ip), vehicle: Klucel (hydroxypropylcellulose) (HPC)
[8] = dose: 100.0 mg/kg/injection, schedule: Q01DX005 (ip), vehicle: Klucel (hydroxypropylcellulose) (HPC)
[9] = dose: 60.0 mg/kg/injection, schedule: Q01DX005 (ip), vehicle: saline with Tween-80
[10] = dose: 25.0 mg/kg/injection, schedule: Q01DX009 (ip), vehicle: saline with Tween-80
[11] = dose: 50.0 mg/kg/injection, schedule: Q01DX009 (ip), vehicle: saline with Tween-80
[12] = dose: 100.0 mg/kg/injection, schedule: Q01DX009 (ip), vehicle: saline with Tween-80
[13] = dose: 200.0 mg/kg/injection, schedule: Q01DX009 (ip), vehicle: saline with Tween-80

Measured: T/C

CC1=CC(=C2C(=O)c3ccccc3C2=O)C=C(C)N1CCNCCO
inactive: [1] 99 % of control | [2] 90 % of control | dose: 240.0 mg/kg/injection, schedule: Q01DX005 (ip), vehicle: Klucel (hydroxypropylcellulose) (HPC) 93 % of control

Cn1c(=O)oc2ccc(Br)cc21
inactive: dose: 100.0 mg/kg/injection, schedule: Q04DX002 (ip), vehicle: Klucel (hydroxypropylcellulose) (HPC) 104 % of control | dose: 200.0 mg/kg/injection, schedule: Q04DX002 (ip), vehicle: Klucel (hydroxypropylcellulose) (HPC) 104 % of control | dose: 400.0 mg/kg/injection, schedule: Q04DX002 (ip), vehicle: Klucel (hydroxypropylcellulose) (HPC) 100 % of control

COc1cc2c3cc1Oc1c(OC)c(OC)cc4c1[C@@H](Cc1ccc(O)c(c1)Oc1ccc(cc1)C[C@@H]3N(C)CC2)N(C)CC4
inactive: [1] 102 % of control and 106 % of control | [2] 118 % of control and 113 % of control

Cc1cc(C)n(C2=NCCN2)n1
inactive: [3] 99 % of control | [4] 96 % of control

CC1=C(C(=O)Nc2ccccc2C)C(c2cccc([N+](=O)[O-])c2)C(C(=O)Nc2ccccc2C)=C(C)N1
inactive: dose: 15.0 mg/kg/injection, schedule: Q01DX005 (ip), vehicle: Klucel (hydroxypropylcellulose) (HPC) 102 % of control | dose: 30.0 mg/kg/injection, schedule: Q01DX005 (ip), vehicle: Klucel (hydroxypropylcellulose) (HPC) 93 % of control | [1] 88 % of control and 97 % of control

C/C1=C/C2=CC(C)C[C@@H]2C(=O)[C@]2(C)C(=O)CC(C)(C)[C@H]2CC1=O (stereo partly specified)
inactive: dose: 0.13 mg/kg/injection, schedule: Q01DX009 (ip), vehicle: Klucel (hydroxypropylcellulose) (HPC) 100 % of control | dose: 0.25 mg/kg/injection, schedule: Q01DX009 (ip), vehicle: Klucel (hydroxypropylcellulose) (HPC) 103 % of control | dose: 0.25 mg/kg/injection, schedule: Q01DX009 (ip), vehicle: saline with Tween-80 99 % of control | dose: 0.5 mg/kg/injection, schedule: Q01DX009 (ip), vehicle: Klucel (hydroxypropylcellulose) (HPC) 102 % of control | dose: 0.5 mg/kg/injection, schedule: Q01DX009 (ip), vehicle: saline with Tween-80 108 % of control | dose: 1.0 mg/kg/injection, schedule: Q01DX009 (ip), vehicle: Klucel (hydroxypropylcellulose) (HPC) 106 % of control | dose: 1.0 mg/kg/injection, schedule: Q01DX009 (ip), vehicle: saline with Tween-80 99 % of control | dose: 2.0 mg/kg/injection, schedule: Q01DX009 (ip), vehicle: saline with Tween-80 101 % of control | dose: 125.0 micrograms/kg/injection, schedule: Q01DX009 (ip), vehicle: saline + alcohol 105 % of control | dose: 250.0 micrograms/kg/injection, schedule: Q01DX009 (ip), vehicle: saline + alcohol 103 % of control | dose: 500.0 micrograms/kg/injection, schedule: Q01DX009 (ip), vehicle: saline + alcohol 112 % of control | dose: 1000.0 micrograms/kg/injection, schedule: Q01DX009 (ip), vehicle: saline + alcohol 107 % of control | dose: 2000.0 micrograms/kg/injection, schedule: Q01DX009 (ip), vehicle: saline + alcohol 105 % of control

OCCN(CCO)c1nc(N(CCO)CCO)c(N2CCCCC2)c(N2CCCCC2)n1
inactive: dose: 100.0 mg/kg/injection, schedule: Q04DX002 (ip), vehicle: saline 104 % of control | dose: 200.0 mg/kg/injection, schedule: Q04DX002 (ip), vehicle: saline 105 % of control | dose: 400.0 mg/kg/injection, schedule: Q04DX002 (ip), vehicle: saline 98 % of control

CN(C)C1CC(N2c3ccccc3Sc3ccc(Cl)cc32)C1 (stereo unspecified)
inactive: dose: 50.0 mg/kg/injection, schedule: Q04DX003 (ip), vehicle: Klucel (hydroxypropylcellulose) (HPC) 107 % of control | [5] 104 % of control | [6] 107 % of control

C=C(C)C1CC=C(C)C(SCCN(CC)CC)C1 (stereo unspecified)
inactive: [7] 104 % of control | [8] 109 % of control | dose: 200.0 mg/kg/injection, schedule: Q01DX005 (ip), vehicle: Klucel (hydroxypropylcellulose) (HPC) 118 % of control

O=C(Cc1cccc(CC(=O)c2ccccc2)n1)c1ccccc1
inactive: dose: 15.0 mg/kg/injection, schedule: Q01DX005 (ip), vehicle: saline with Tween-80 108 % of control | dose: 30.0 mg/kg/injection, schedule: Q01DX005 (ip), vehicle: saline with Tween-80 92 % of control | [9] 92 % of control and 93 % of control

COC(=O)CCCCc1ccc(CCCC(=O)OC)c2ccccc12
inactive: dose: 50.0 mg/kg/injection, schedule: Q01DX009 (ip), vehicle: other 102 % of control | dose: 100.0 mg/kg/injection, schedule: Q01DX009 (ip), vehicle: other 102 % of control | dose: 200.0 mg/kg/injection, schedule: Q01DX009 (ip), vehicle: other 105 % of control

Cc1cc(C2(c3cc(C)c(O)c(C)c3)OC(=O)c3ccccc32)cc(C)c1O
inactive: dose: 50.0 mg/kg/injection, schedule: Q01DX009 (ip), vehicle: Klucel (hydroxypropylcellulose) (HPC) 105 % of control | dose: 100.0 mg/kg/injection, schedule: Q01DX009 (ip), vehicle: Klucel (hydroxypropylcellulose) (HPC) 99 % of control | dose: 200.0 mg/kg/injection, schedule: Q01DX009 (ip), vehicle: Klucel (hydroxypropylcellulose) (HPC) 103 % of control

O=Cc1ccc([N+](=O)[O-])[nH]1
inactive: dose: 12.5 mg/kg/injection, schedule: Q01DX009 (ip), vehicle: saline with Tween-80 92 % of control | [10] 87 % of control | [11] 92 % of control | [12] 86 % of control

CCOC(=O)C(NC(=O)c1ccccc1)(C(=O)OCC)c1ccccn1
inactive: [3] 99 % of control | [4] 99 % of control | dose: 240.0 mg/kg/injection, schedule: Q01DX005 (ip), vehicle: saline 105 % of control

CC1CCN(CC(O)C(C)(C)Oc2ccc(-c3ccccc3)cc2)CC1 (stereo unspecified)
inactive: [7] 97 % of control | [8] 93 % of control

COC(=O)Cc1cccc2c(=O)cc(-c3cccs3)oc12
inactive: dose: 25.0 mg/kg/injection, schedule: Q01DX009 (ip), vehicle: saline 90 % of control | dose: 25.0 mg/kg/injection, schedule: Q01DX009 (ip), vehicle: suspension in saline 97 % of control | dose: 50.0 mg/kg/injection, schedule: Q01DX009 (ip), vehicle: saline 105 % of control and 92 % of control | dose: 50.0 mg/kg/injection, schedule: Q01DX009 (ip), vehicle: suspension in saline 94 % of control | dose: 100.0 mg/kg/injection, schedule: Q01DX009 (ip), vehicle: saline 117 % of control and 97 % of control | dose: 100.0 mg/kg/injection, schedule: Q01DX009 (ip), vehicle: suspension in saline 94 % of control | dose: 200.0 mg/kg/injection, schedule: Q01DX009 (ip), vehicle: saline 108 % of control | dose: 200.0 mg/kg/injection, schedule: Q01DX009 (ip), vehicle: suspension in saline 95 % of control

C/C(=C\C(=O)c1ccccc1)Nc1ccc(Cl)cc1
inactive: [10] 108 % of control | [11] 92 % of control | [12] 89 % of control | [13] 99 % of control

Cc1cc(C(=O)O)ccc1S(=O)(=O)F
inactive: [9] 101 % of control | dose: 120.0 mg/kg/injection, schedule: Q01DX005 (ip), vehicle: saline with Tween-80 105 % of control

COC1C(C)OC(OC2CC(C)(O)Cc3cc4c(c(O)c32)C(=O)c2c(O)cc3c(c2C4=O)OC2OC3(C)C(O)C(N(C)C=O)C2O)C(OC)C1(C)OC (stereo unspecified)
inactive: dose: 3.12 mg/kg/injection, schedule: Q04DX003 (ip), vehicle: other 100 % of control | dose: 6.25 mg/kg/injection, schedule: Q04DX003 (ip), vehicle: other 97 % of control | dose: 12.5 mg/kg/injection, schedule: Q04DX003 (ip), vehicle: other 94 % of control | dose: 25.0 mg/kg/injection, schedule: Q04DX003 (ip), vehicle: other 91 % of control | dose: 50.0 mg/kg/injection, schedule: Q04DX003 (ip), vehicle: other 95 % of control

COSc1ccc([N+](=O)[O-])cc1
inactive: [5] 108 % of control | [6] 102 % of control | dose: 400.0 mg/kg/injection, schedule: Q04DX003 (ip), vehicle: Klucel (hydroxypropylcellulose) (HPC) 99 % of control

Cn1c(/C=N/N2CCOCC2)cnc1[N+](=O)[O-]
inactive: [11] 106 % of control | [12] 109 % of control | [13] 110 % of control

COc1ccc(/C(C)=N/[O-])cc1CS[n+]1ccccc1
inactive: dose: 50.0 mg/kg/injection, schedule: Q01DX005 (ip), vehicle: distilled water + Tween-80 + alcohol 104 % of control | dose: 100.0 mg/kg/injection, schedule: Q01DX005 (ip), vehicle: distilled water + Tween-80 + alcohol 95 % of control | dose: 200.0 mg/kg/injection, schedule: Q01DX005 (ip), vehicle: distilled water + Tween-80 + alcohol 104 % of control
